Measured values reported in patent publication US5527782A, “5-halo-2,3'-O-cyclocytidines” (ACIC (Canada) Inc., priority 1990, dated 1996).
Structures can show the parent of a compound that is named as a salt.

Assays:
[1] = test system: human alveolar tumour cell line A549; assay: [methyl-^3 H]thymidine uptake / cytotoxicity in human alveolar tumour cell line A549; type: cell-based; details: for IC50: Homo sapiens, 96 h, A549, four days incubation, then [methyl-^3 H]thymidine four hours, read-out: IC50 (drug concentrations producing 50% cytotoxicity); for cytotoxic effect on A549 cells compared to 2,3'-O-cyclocytidine hydrochloride: at relatively low concentrations
Source text: In this Example, there is described an in vitro comparison between 2,3'-O-cyclocytidine hydrochloride, 5-bromo-2,3'-O-cyclocytidine hydrochloride, and 5-iodo-2,3'-O-cyclocytidine hydrochloride. The specific in vitro test involved assessing the toxicity of the compounds in a particular cell line by conducting [methyl-^3 H]thymidine uptake experiments.
The particular cell line used in the Example was human alveolar tumour cell line A549 (hereinafter referred to as A549) obtained from The American Type Culture Collection (ATCC) as CCL 185 (lung carcinoma, human).
Cultures were inoculated at 1×10^5 cells/60 mm dish, incubated for four days in the presence of various concentrations (see FIGURE) of 2,3'-O-cyclocytidine hydrochloride (.largecircle.), 5-bromo-2,3'-O-cyclocytidine hydrochloride and 5-iodo-2,3'-O-cyclocytidine hydrochloride. Thereafter, the cells were incubated with a medium supplemented with [methyl-^3 H]thymidine (82 Cl/mmol; 5 μCl/ml) for four hours and lysed, and the amount of radioactivity incorporated into genomic DNA was measured. The IC50 values (drug concentrations producing 50% cytotoxicity) for each compound illustrated in the FIGURE are reported in Table 10. As will be apparent from […]

[2] = test system: A375 melanoma cells; assay: In vivo antitumor activity, A375 melanoma engrafted s.c. in SCID mice; details: for Growth Delay: calculated from tumor volume curve; for Tumor Weight (% Inhibition): tumor weight at day 20
Procedure: (§1) In vivo studies were conducted comparing the effectiveness of 5-bromo-2,3'-O-cyclocytidine hydrochloride (5-Br-cycloC) with one or more of 2,3'-O-cyclocytidine hydrochloride (cycloC), 1 -β-D-arabinofuranosylcytosine (Ara-C), Adfiamycin (ADR) and Dacarbazine (DTIC).
(§2) More specifically, the antitumor activity of these compounds were evaluated in two human tumor cell lines engrafted in severe combined immunodeficient (SCID) mice. The particular cell lines used in this Example were A549 (described above in Example 5) and melanoma A375 cells obtained from The American Type Culture Collection (ATCC) (hereinafter referred to as A375).

[3] = MTD in non-tumor bearing SCID mice; details: mouse, in vivo, ip, i.p. daily×7
[4] = test system: A549; assay: In vivo antitumor activity, A549 engrafted s.c. in SCID mice; details: for Growth Delay: calculated from tumor volume curve; for Tumor Weight (% Inhibition): tumor weight at day 20
Procedure: as §1, §2

[5] = Experiment 1, 1000 mg/kg i.p. daily × 7
[6] = Experiment 1, 250 mg/kg i.p. daily × 7
[7] = Experiment 1, 250 mg/kg i.p. every other day × 7
[8] = Experiment 1, 200 mg/kg i.p. daily × 7
[9] = Experiment 2, 250 mg/kg i.p. daily × 7
[10] = Experiment 2, 300 mg/kg i.p. × 1
[11] = Experiment 3, 250 mg/kg i.p. daily × 7
[12] = Experiment 3, 250 mg/kg i.p. every other day × 7
[13] = Experiment 4, 250 mg/kg i.p. every other day × 7
[14] = Experiment 1, 60 mg/kg i.p. daily × 7
[15] = Experiment 2, 60 mg/kg i.p. daily ×
[16] = Experiment 2, 60 mg/kg i.p. daily × 7
[17] = Experiment 3, 120 mg/kg i.p. every other day × 7
[18] = Experiment 4, 120 mg/kg i.p. every other day × 7

## N=c1ccn2c(n1)O[C@@H]1[C@@H](O)[C@H]2O[C@@H]1CO [2,3'-O-Cyclocytidine hydrochloride, 2,3'-O-cyclocytidine hydrochloride, reference compound]
[1]
  IC50: 50 µM
[2]; [5]
  Growth Delay: 2 days
  Tumor Weight (% Inhibition): +6%
[2]; in vivo, ip, 1000 mg/kg
  Survival Rate (%): 100%
  Weight Loss (% Decrease): 0%

## N=c1nc2n(cc1I)[C@@H]1O[C@H](CO)[C@H](O2)[C@H]1O [5-Iodo-2,3'-O-cyclocytidine hydrochloride]
[1]
  IC50: 10 µM
  cytotoxic effect on A549 cells compared to 2,3'-O-cyclocytidine hydrochloride: significantly superior cytotoxic effect

## N=c1nc2n(cc1Br)[C@@H]1O[C@H](CO)[C@H](O2)[C@H]1O [5-bromo-2,3'-O-cyclocytidine hydrochloride]
[3]
  MTD: 250 mg/kg
[1]
  IC50: 40 µM
  cytotoxic effect on A549 cells compared to 2,3'-O-cyclocytidine hydrochloride: significantly superior cytotoxic effect
[4]; 250 mg/kg daily×7, over a 20 day period
  decrease of tumor growth: significantly decreased tumor growth
[4]; [6]
  Growth Delay: 10 days
  Tumor Weight (% Inhibition): 43%
[4]; [7]
  Growth Delay: 6 days
  Tumor Weight (% Inhibition): 12%
[4]; in vivo
  survival rate: 100%
  weight loss: no weight loss (or an actual weight in one stance)
[4]; in vivo, ip, 250 mg/kg
  Survival Rate (%): 100%
[2]; [8]
  Growth Delay: 10 days
  Tumor Weight (% Inhibition): 26%
[2]; [9]
  Growth Delay: 10 days
  Tumor Weight (% Inhibition): 43%
[2]; [10]
  Growth Delay: 11 days
  Tumor Weight (% Inhibition): 45%
[2]; [11]
  Growth Delay: 9 days
  Tumor Weight (% Inhibition): 38%
[2]; [12]
  Growth Delay: 12 days
  Tumor Weight (% Inhibition): 43%
[2]; [13]
  Growth Delay: 11 days
  Tumor Weight (% Inhibition): 48%
[2]; in vivo
  weight loss during therapy: no weight loss (or in two instances an actual weight gain)
[2]; in vivo, ip, 200 mg/kg
  Survival Rate (%): 100%
  Weight Loss (% Decrease): 0%
[2]; in vivo, ip, 300 mg/kg
  Survival Rate (%): 33.3%
  Weight Loss (% Decrease): 0%
[2]; treatment of A375, Table 11
  effectiveness in effecting tumor growth delay: as effective in effecting tumor growth delay as 1-β-D-arabinofuranosylcytosine and dacarbazine, and much more effective than 2,3'-O-cyclocytidine hydrochloride

## COc1cccc2c1C(=O)c1c(O)c3c(c(O)c1C2=O)C[C@@](O)(C(=O)CO)C[C@@H]3O[C@H]1C[C@H](N)[C@H](O)[C@H](C)O1 [ADR, Adfiamycin]
[4]; A549, Table 12
  survival rate: ≤ 33.3%
[4]; Experiment 1, 7 mg/kg i.p. × 1
  Survival Rate (%): 16.7%
  Growth Delay: 5 days
  Tumor Weight (% Inhibition): 6%
[4]; Experiment 2, 5 mg/kg i.p. × 1
  Survival Rate (%): 16.7%
  Growth Delay: 6 days
  Tumor Weight (% Inhibition): 24%
[4]; in vivo
  weight loss: weight loss
[4]; in vivo, ip, 5 mg/kg
  Weight Loss (% Decrease): 32%
[4]; in vivo, ip, 7 mg/kg
  Weight Loss (% Decrease): 16%

## Nc1ccn([C@@H]2O[C@H](CO)[C@@H](O)[C@@H]2O)c(=O)n1 [Ara-C, 1 -β-D-arabinofuranosylcytosine]
[4]; A549, Table 12
  survival rate: ≤ 33.3%
[4]; [14]
  Survival Rate (%): 33.3%
  Growth Delay: 7 days
  Tumor Weight (% Inhibition): 38%
[4]; [15]
  Survival Rate (%): 33.3%
  Growth Delay: 11 days
  Tumor Weight (% Inhibition): 47%
[4]; in vivo
  weight loss: weight loss
[2]; [14]
  Survival Rate (%): 100%
  Growth Delay: 10 days
  Tumor Weight (% Inhibition): 45%
[2]; [16]
  Survival Rate (%): 100%
  Growth Delay: 11 days
  Tumor Weight (% Inhibition): 39%

## CN(C)/N=N/c1[nH]cnc1C(N)=O [DTIC, Dacarbazine, reference compound]
[2]; [17]
  Growth Delay: 12 days
  Tumor Weight (% Inhibition): 53%
[2]; [18]
  Growth Delay: 13 days
  Tumor Weight (% Inhibition): 59%
